The assay deals with recombinant NL-Rluc virus. The assay can be described thus: Inhibition of HIV replication (NL-Rluc virus, luciferase readout in MT-2 cells). It is filed as cell-based. Particulars: Human immunodeficiency virus 1, MT2, 120 h.

Here are results for 18 compounds from patent US9006235B2, “Inhibitors of human immunodeficiency virus replication” (priority 2012, dated 2015).

Like-named read-outs stand apart in the source and are kept apart here.

In the case of `Cc1nc2cc(NC(=O)c3ccc4c(c3)-c3ccccc3C4=O)nn2c(-c2cc(F)c3c(c2C)CCCO3)c1[C@H](OC(C)(C)C)C(=O)O` [Example 18, (2S)-2-tert-butoxy-2-(7-(8-fluoro-5-methylchroman-6-yl)-5-methyl-2-(9-oxo-9H-fluorene-3-carboxamido)pyrazolo[1,5-a]pyrimidin-6-yl)acetic acid], for the setting “read-out: Activity”, the EC50 is 100 to 1000 nM. As for `CCOc1ccccc1C(=O)Nc1cc2nc(C)c([C@H](OC(C)(C)C)C(=O)O)c(-c3cc(F)c4c(c3C)CCCO4)n2n1` [Example 19, (2S)-2-tert-butoxy-2-(2-(2-ethoxybenzamido)-7-(8-fluoro-5-methylchroman-6-yl)-5-methylpyrazolo[1,5-a]pyrimidin-6-yl)acetic acid], the EC50 (read-out: Activity) is below 100 nM.

In the case of `Cc1nc2cc(NC(=O)CCCCCC(C)(C)C)nn2c(-c2cc(F)c3c(c2C)CCCO3)c1[C@H](OC(C)(C)C)C(=O)O` [Example 20, (2S)-2-tert-butoxy-2-(2-(7,7-dimethyloctanamido)-7-(8-fluoro-5-methylchroman-6-yl)-5-methylpyrazolo[1,5-a]pyrimidin-6-yl)acetic acid], the EC50 (read-out: Activity) was below 100 nM. As for `Cc1nc2cc(NC(=O)CC3CCCC3)nn2c(-c2cc(F)c3c(c2C)CCCO3)c1[C@H](OC(C)(C)C)C(=O)O` [Example 21, (2S)-2-tert-butoxy-2-(2-(2-cyclopentylacetamido)-7-(8-fluoro-5-methylchroman-6-yl)-5-methylpyrazolo[1,5-a]pyrimidin-6-yl)acetic acid], the EC50 (read-out: Activity) was below 100 nM. As to `Cc1nc2cc(NC(=O)c3ccc4c(c3)OC(F)(F)O4)nn2c(-c2cc(F)c3c(c2C)CCCO3)c1[C@H](OC(C)(C)C)C(=O)O` [Example 22, (2S)-2-tert-butoxy-2-(2-(2,2-difluorobenzo[d][1,3]-dioxole-5-carboxamido)-7-(8-fluoro-5-methylchroman-6-yl)-5-methylpyrazolo[1,5-a]pyrimidin-6-yl)acetic acid], the EC50 (read-out: Activity) lay in the range of 100 to 1000 nM. Regarding `COc1ccc(CCC(=O)Nc2cc3nc(C)c([C@H](OC(C)(C)C)C(=O)O)c(-c4cc(F)c5c(c4C)CCCO5)n3n2)cc1` [Example 23, (2S)-2-tert-butoxy-2-(7-(8-fluoro-5-methylchroman-6-yl)-2-(3-(4-methoxyphenyl)propanamido)-5-methylpyrazolo[1,5-a]pyrimidin-6-yl)acetic acid], the EC50 worked out at 170 nM. For the same compound, the EC50 (read-out: Activity) is 100 to 1000 nM.

For `Cc1nc2cc(NC(=O)CC3CCCCC3)nn2c(-c2cc(F)c3c(c2C)CCCO3)c1[C@H](OC(C)(C)C)C(=O)O` [Example 25, (2S)-2-tert-butoxy-2-(2-(2-cyclohexylacetamido)-7-(8-fluoro-5-methylchroman-6-yl)-5-methylpyrazolo[1,5-a]pyrimidin-6-yl)acetic acid], where the note is “read-out: Activity”, the EC50 is below 100 nM.

Regarding `Cc1nc2cc(NC(=O)Cc3ccc(Cl)c(Cl)c3)nn2c(-c2cc(F)c3c(c2C)CCCO3)c1[C@H](OC(C)(C)C)C(=O)O` [Example 26, (2S)-2-tert-butoxy-2-(2-(2-(3,4-dichlorophenyl)acetamido)-7-(8-fluoro-5-methylchroman-6-yl)-5-methylpyrazolo[1,5-a]pyrimidin-6-yl)acetic acid], the EC50 (read-out: Activity) is below 100 nM. Consider `Cc1nc2cc(NC(=O)CCCOc3ccccc3)nn2c(-c2cc(F)c3c(c2C)CCCO3)c1[C@H](OC(C)(C)C)C(=O)O` [Example 27, (2S)-2-tert-butoxy-2-(7-(8-fluoro-5-methylchroman-6-yl)-5-methyl-2-(4-phenoxybutanamido)pyrazolo[1,5-a]pyrimidin-6-yl)acetic acid], for which, under “read-out: Activity”, the EC50 fell in the range of 100 to 1000 nM. As for `Cc1nc2cc(NC(=O)CCC3CCCCC3)nn2c(-c2cc(F)c3c(c2C)CCCO3)c1[C@H](OC(C)(C)C)C(=O)O` [Example 28, (2S)-2-tert-butoxy-2-(2-(3-cyclohexylpropanamido)-7-(8-fluoro-5-methylchroman-6-yl)-5-methylpyrazolo[1,5-a]pyrimidin-6-yl)acetic acid], the EC50 (read-out: Activity) is below 100 nM. As to `COc1cc(C(=O)Nc2cc3nc(C)c([C@H](OC(C)(C)C)C(=O)O)c(-c4cc(F)c5c(c4C)CCCO5)n3n2)cc(OC)c1OC` [Example 29, (2S)-2-tert-butoxy-2-(7-(8-fluoro-5-methylchroman-6-yl)-5-methyl-2-(3,4,5-trimethoxybenzamido)pyrazolo[1,5-a]pyrimidin-6-yl)acetic acid], for the setting “read-out: Activity”, the EC50 is 100 to 1000 nM. Same read-out and setting: with `Cc1nc2cc(NC(=O)C(=O)c3c[nH]c4ccccc34)nn2c(-c2cc(F)c3c(c2C)CCCO3)c1[C@H](OC(C)(C)C)C(=O)O` [Example 31, (2S)-2-(2-(2-(1H-indol-3-yl)-2-oxoacetamido)-7-(8-fluoro-5-methylchroman-6-yl)-5-methylpyrazolo[1,5-a]pyrimidin-6-yl)-2-tert-butoxyacetic acid] the figure was below 100 nM.

Regarding `Cc1ccc(OC(=O)Nc2cc3nc(C)c([C@H](OC(C)(C)C)C(=O)O)c(-c4cc(F)c5c(c4C)CCCO5)n3n2)cc1` [Example 32, (2S)-2-(tert-butoxy)-2-(7-(8-fluoro-5-methylchroman-6-yl)-5-methyl-2-(((p-tolyloxy)carbonyl)amino)pyrazolo[1,5-a]pyrimidin-6-yl)acetic acid], the EC50 (MT-2 cells infected with NL-RLuc virus, 5 days of incubation, luciferase, serum condition not specified, read-out: Activity) is above 1000 nM and the EC50 (MT-2 cells infected with NL-RLuc virus, 5 days of incubation, luciferase, serum condition not specified, read-out: EC50) worked out at 6410 nM.

Regarding `Cc1nc2cc(NC(=O)OCc3ccccc3)nn2c(-c2cc(F)c3c(c2C)CCCO3)c1[C@H](OC(C)(C)C)C(=O)O` [Example 33, (2S)-2-(2-(((benzyloxy)carbonyl)amino)-7-(8-fluoro-5-methylchroman-6-yl)-5-methylpyrazolo[1,5-a]pyrimidin-6-yl)-2-(tert-butoxy)acetic acid], the EC50 is 60 nM. In addition, the EC50 (read-out: Activity) is below 100 nM.

On to `CCCCOC(=O)Nc1cc2nc(C)c([C@H](OC(C)(C)C)C(=O)O)c(-c3cc(F)c4c(c3C)CCCO4)n2n1` [Example 34, (2S)-2-(tert-butoxy)-2-(2-((butoxycarbonyl)amino)-7-(8-fluoro-5-methylchroman-6-yl)-5-methylpyrazolo[1,5-a]pyrimidin-6-yl)acetic acid], for which the EC50 (read-out: Activity) is below 100 nM. On the same count and under the same terms, the same measure for `Cc1nc2cc(NC(=O)OCC(C)(C)C)nn2c(-c2cc(F)c3c(c2C)CCCO3)c1[C@H](OC(C)(C)C)C(=O)O` [Example 35, (2S)-2-(tert-butoxy)-2-(7-(8-fluoro-5-methylchroman-6-yl)-5-methyl-2-(((neopentyloxy)carbonyl)amino)pyrazolo[1,5-a]pyrimidin-6-yl)acetic acid]: below 100 nM; for `Cc1nc2cc(NC(=O)OCC[Si](C)(C)C)nn2c(-c2cc(F)c3c(c2C)CCCO3)c1[C@H](OC(C)(C)C)C(=O)O` [Example 36, (2S)-2-(tert-butoxy)-2-(7-(8-fluoro-5-methylchroman-6-yl)-5-methyl-2-(((2-(trimethylsilyl)ethoxy)carbonyl)amino)pyrazolo[1,5-a]pyrimidin-6-yl)acetic acid]: below 100 nM; for `Cc1ccc(NC(=O)Nc2cc3nc(C)c([C@H](OC(C)(C)C)C(=O)O)c(-c4cc(F)c5c(c4C)CCCO5)n3n2)cc1` [Example 37, (2S)-2-(tert-butoxy)-2-(7-(8-fluoro-5-methylchroman-6-yl)-5-methyl-2-(3-(p-tolyl)ureido)pyrazolo[1,5-a]pyrimidin-6-yl)acetic acid]: below 100 nM.
